Assay results from PubChem BioAssay (NCI).
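Dose response: 5 concentrations. Exposure: 48 h. Format: 96-well plates. Endpoint: linear interpolation; highest concentration if not reached. GI50 = concentration required for 50% inhibition of growth. TGI: total growth inhibition.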

Tests used:
Test in all cases: growth of human tumour cells (NCI), 48 h
UACC-62 melanoma = system: UACC-62 melanoma
T-47D breast = system: T-47D breast
NCI-H522 lung = system: NCI-H522 lung
ACHN renal = system: ACHN renal
OVCAR-5 ovarian = system: OVCAR-5 ovarian
U251 CNS = system: U251 CNS
OVCAR-3 ovarian = system: OVCAR-3 ovarian
LOX IMVI melanoma = system: LOX IMVI melanoma
SF-295 CNS = system: SF-295 CNS
IGROV1 ovarian = system: IGROV1 ovarian
NCI/ADR-RES ovarian = system: NCI/ADR-RES ovarian
SK-MEL-5 melanoma = system: SK-MEL-5 melanoma
OVCAR-4 ovarian = system: OVCAR-4 ovarian
SN12C renal = system: SN12C renal
786-0 renal = system: 786-0 renal
SK-MEL-2 melanoma = system: SK-MEL-2 melanoma
RPMI-8226 leukemia = system: RPMI-8226 leukemia
NCI-H23 lung = system: NCI-H23 lung
HL-60(TB) leukemia = system: HL-60(TB) leukemia
SW-620 colon = system: SW-620 colon
SNB-75 CNS = system: SNB-75 CNS
M14 melanoma = system: M14 melanoma
SR leukemia = system: SR leukemia
SK-OV-3 ovarian = system: SK-OV-3 ovarian
RXF 393 renal = system: RXF 393 renal
HCT-116 colon = system: HCT-116 colon
KM12 colon = system: KM12 colon
EKVX NSCLC = system: EKVX NSCLC
A549 NSCLC = system: A549 NSCLC
SK-MEL-28 melanoma = system: SK-MEL-28 melanoma
CCRF-CEM leukemia = system: CCRF-CEM leukemia
UO-31 renal = system: UO-31 renal
CAKI-1 renal = system: CAKI-1 renal
DU-145 prostate = system: DU-145 prostate
HCT-15 colon = system: HCT-15 colon
SNB-19 CNS = system: SNB-19 CNS
HOP-92 NSCLC = system: HOP-92 NSCLC
NCI-H460 lung = system: NCI-H460 lung
PC-3 prostate = system: PC-3 prostate
MOLT-4 leukemia = system: MOLT-4 leukemia
TK-10 renal = system: TK-10 renal
K-562 leukemia = system: K-562 leukemia
UACC-257 melanoma = system: UACC-257 melanoma
COLO 205 colon = system: COLO 205 colon
HT29 colon = system: HT29 colon
OVCAR-8 ovarian = system: OVCAR-8 ovarian
MCF7 breast = system: MCF7 breast
MDA-MB-231 breast = system: MDA-MB-231 breast
SF-539 CNS = system: SF-539 CNS
MDA-MB-435 = system: MDA-MB-435
NCI-H226 lung = system: NCI-H226 lung
HS 578T breast = system: HS 578T breast
A498 renal = system: A498 renal

## COc1cc2c(cc1OC)-c1ncc3cc4c(cc3c1C2)OCO4
UACC-62 melanoma
  GI50: > 100 µM
  TGI: > 100 µM
T-47D breast
  GI50: 71.2 µM
  TGI: > 100 µM
NCI-H522 lung
  GI50: 13.2 µM
  TGI: 48.4 µM
ACHN renal
  GI50: > 100 µM
  TGI: > 100 µM
OVCAR-5 ovarian
  GI50: 39.6 µM
  TGI: 97 µM
U251 CNS
  GI50: 41.4 µM
  TGI: > 100 µM
OVCAR-3 ovarian
  GI50: 61.2 µM
  TGI: > 100 µM
LOX IMVI melanoma
  GI50: > 100 µM
  TGI: > 100 µM
SF-295 CNS
  GI50: 46.2 µM
  TGI: > 100 µM
IGROV1 ovarian
  GI50: 25 µM
  TGI: 59.6 µM
NCI/ADR-RES ovarian
  GI50: 24.8 µM
  TGI: 49.6 µM
SK-MEL-5 melanoma
  GI50: 7.65 µM
  TGI: > 100 µM
OVCAR-4 ovarian
  GI50: 57.3 µM
  TGI: > 100 µM
SN12C renal
  GI50: > 100 µM
  TGI: > 100 µM
786-0 renal
  GI50: 18.3 µM
  TGI: 45.5 µM
SK-MEL-2 melanoma
  GI50: 32.2 µM
  TGI: 75.8 µM
RPMI-8226 leukemia
  GI50: 5.57 µM
  TGI: > 100 µM
NCI-H23 lung
  GI50: 20.3 µM
  TGI: 41.7 µM
HL-60(TB) leukemia
  GI50: 10.3 µM
  TGI: 22 µM
SW-620 colon
  GI50: 34.9 µM
  TGI: > 100 µM
SNB-75 CNS
  GI50: 64.1 µM
  TGI: > 100 µM
M14 melanoma
  GI50: 19.6 µM
  TGI: 82.5 µM
SR leukemia
  GI50: 2.7 µM
  TGI: 15.3 µM
SK-OV-3 ovarian
  GI50: 53 µM
  TGI: > 100 µM
RXF 393 renal
  GI50: 50.2 µM
  TGI: > 100 µM
HCT-116 colon
  GI50: 11.1 µM
  TGI: 23 µM
KM12 colon
  GI50: 38.1 µM
  TGI: > 100 µM
EKVX NSCLC
  GI50: 22 µM
  TGI: 72.3 µM
A549 NSCLC
  GI50: 34.2 µM
  TGI: > 100 µM
SK-MEL-28 melanoma
  GI50: > 100 µM
  TGI: > 100 µM
CCRF-CEM leukemia
  GI50: 6.36 µM
  TGI: 21.4 µM
UO-31 renal
  GI50: 23.1 µM
  TGI: 63.7 µM
CAKI-1 renal
  GI50: 38.5 µM
  TGI: > 100 µM
DU-145 prostate
  GI50: 25.3 µM
  TGI: 53.6 µM
HCT-15 colon
  GI50: > 100 µM
  TGI: > 100 µM
SNB-19 CNS
  GI50: 60 µM
  TGI: > 100 µM
HOP-92 NSCLC
  GI50: > 100 µM
  TGI: > 100 µM
NCI-H460 lung
  GI50: 13 µM
  TGI: 30.5 µM
PC-3 prostate
  GI50: > 100 µM
  TGI: > 100 µM
MOLT-4 leukemia
  GI50: 4.14 µM
  TGI: 20.4 µM
TK-10 renal
  GI50: 43.2 µM
  TGI: > 100 µM
K-562 leukemia
  GI50: 19 µM
  TGI: > 100 µM
UACC-257 melanoma
  GI50: 48.4 µM
  TGI: > 100 µM
COLO 205 colon
  GI50: 61.1 µM
  TGI: > 100 µM
HT29 colon
  GI50: > 100 µM
  TGI: > 100 µM
OVCAR-8 ovarian
  GI50: 47.3 µM
  TGI: > 100 µM
MCF7 breast
  GI50: 12.4 µM
  TGI: 30.6 µM
MDA-MB-231 breast
  GI50: > 100 µM
  TGI: > 100 µM
SF-539 CNS
  GI50: 23.4 µM
  TGI: 56.1 µM
MDA-MB-435
  GI50: 63.4 µM
  TGI: > 100 µM

## N=C(N)c1ccc(-c2ccc(-c3ccc(F)cc3)s2)s1
NCI-H226 lung
  GI50: 14.2 µM
  TGI: 54.2 µM
SK-MEL-5 melanoma
  GI50: 1.81 µM
  TGI: 3.2 µM
M14 melanoma
  GI50: 1.89 µM
  TGI: 3.4 µM
SK-OV-3 ovarian
  GI50: 1.8 µM
  TGI: 3.57 µM
RXF 393 renal
  GI50: 1.75 µM
  TGI: 3.34 µM
HS 578T breast
  GI50: 2.19 µM
  TGI: 4.85 µM
CAKI-1 renal
  GI50: 1.68 µM
  TGI: 3.08 µM
DU-145 prostate
  GI50: 1.72 µM
  TGI: 3.19 µM
TK-10 renal
  GI50: 1.72 µM
  TGI: 3.14 µM
UACC-257 melanoma
  GI50: 2.19 µM
  TGI: 4.15 µM
A498 renal
  GI50: 1.95 µM
  TGI: 4.65 µM
MDA-MB-435
  GI50: 1.59 µM
  TGI: 2.93 µM
